Assay results published in paper PMC4061029, “A Stable and Reproducible Human Blood-Brain Barrier Model Derived from Hematopoietic Stem Cells” (PLoS ONE, 2014).

Assays:
β-catenin = assay: Wnt signaling experiments: β-catenin expression in monocultures of ECs; assay type: cell-based, human; conditions: EC monoculture; for expression of active β-catenin: after 1 day; for expression and nuclear localization of total β-catenin: day 3, BIO 0.5 µM, Wnt3a 6.25 ng/mL
Description: For Wnt signaling experiments, mono- and co-culture systems were used. In monoculture, 8×10^4 CD34^+-ECs were seeded on the Matrigel-coated transwell insert. […] Co-cultures were prepared as described before. The CD34^+-derived ECs co-cultured with pericytes for 1 or 6 days were used in the signaling experiments. Agonist (0.5–5 µM BIO) was added into the basolateral compartment while antagonist (0.1–3 µM XAV939 (Selleckbio)) was added in the apical part of the transwell system.
Immunostaining. Cells were fixed in cold methanol/acetone (50%/50% v/v) for 1 min or 4% (v/v) paraformaldehyde (Electron Microscopy Sciences, EMS) for 10 min at room temperature (see Table S1). After permeabilizing the cells with 0.1% (v/v) Triton X-100 (Sigma-Aldrich) for 5-10 min, whenever required, and blocking for 30 min with 1% (w/v) bovine serum albumin (BSA) solution (Sigma-Aldrich) or normal goat serum (10% (v/v), Sigma-Aldrich), the cells were incubated for 1 h with the primary monoclonal antibodies listed in Table S1, at room temperature. After washing, the cells were stained with a secondary antibody for 1 h in the dark at room temperature (Table S1). In each immunofluorescence experiment, an isotype-matched IgG control was used. The nuclei of cells was stained with 4',6-diamidino-2-phenylindole (DAPI; Sigma-Aldrich) or Hoescht reagent (ICN Pharmaceuticals). Cells were mounted using Mowiol (Sigma-Aldrich) containing an anti-fading agent (Dabco, Sigma-Aldrich) or cell-mounting medium from DAKO. Cells were examined with a Zeiss LSM 50 confocal microscope or with a Leica DMR fluorescence microscope (Leica Microsystems). In the last case, images were collected using a Cool SNAP RS Photometrics camera (Leica Microsystems) and were processed using Adobe Photoshop software 5.5 (Adobe systems).
FACS analysis. Cells were dissociated from the culture plate by exposure to Cell Dissociation Buffer (Life Technologies) for 3-5 min and gentle pipetting, centrifuged and finally resuspended in PBS supplemented with 5% (v/v) FBS. The single cell suspensions were aliquoted (2.0×10^5 cells per condition), fixed with 4% (v/v) paraformaldehyde (PFA; EMS) or ice-cold absolute methanol and permeabilized with 0.1% (w/v) Triton X-100 (Fluka) when necessary. The cells were stained with antigen-specific primary antibodies (dilution ratios and list of antibodies are given on Table S1). After the incubation with primary antibodies, cells were incubated with phycoerytrin (PE)-conjugated anti-rabbit (R&D Systems), and PE-conjugated anti-mouse (Santa Cruz) secondary antibodies. FACS Calibur (BD Biosciences) and BD Cell Quest Software (BD Biosciences) were used for the acquisition and analysis of the data.

[1] = test system: monocultures of CD34+-derived ECs; assay: Wnt signaling experiments: paracellular permeability of treated EC monocultures; assay type: cell-based, human; conditions: Wnt3a 6.25 ng/mL
Description: (§1) Prior to the experiments, HEPES-buffered Ringer’s solution (in some cases EBM-2 medium) was added to empty wells of a 12-well plate (Costar). Filter inserts, containing confluent monolayers of CD34^+-ECs, were subsequently placed in the 12-well plate, filled with compound solution containing the fluorescent integrity marker Lucifer Yellow (20 µM; Life Technologies), and then placed on an orbital shaker. After 1 h, filter inserts were withdrawn from the receiver compartment. Aliquots from the donor solution were taken at the beginning and at the end of the experiments and the fluorescence was quantified. At least three inserts with cells and three without cells were tested in each permeability measurement. Fluorescence detection was carried out on a Synergy H1 multiplates reader (Biotek) using the following excitation/emission wavelength (nm) settings: 432/538; 490/516; 542/570 for Lucifer yellow, Fluorescein Na and Cy3-Human Serum Albumin and Human IgG respectively.
To obtain a concentration-independent transport parameter, the clearance principle was used. The increment in cleared volume was calculated by dividing the amount of compound in the receiver compartment by the drug concentration in the donor compartment. The volume cleared was plotted versus time and the slope estimated by linear regression analysis. The slope of the clearance curve with inserts alone and inserts with cells is equal to PSf and PSt, respectively, where PS (microliters/minute) is the permeability surface area (square centimeter) product. The PS-value for endothelial monolayer (PSe) was calculated. To generate the endothelial permeability coefficient, Pe (cm/min), the PSe value was divided by the surface area of the filter (A in cm^2) insert using the following equation: Pe = [1/PSt−1/PSf]^−1/A. To assess possible adsorption to plastics and non-specific binding to cells, the mass balance (%) was calculated from the amount of compound recovered in both compartments at the end of the experiment divided by the total amount added in the donor compartment at time zero. For Pe determination, mass balance value should be between 80% and 120%.
(§2) For Wnt signaling experiments, mono- and co-culture systems were used. In monoculture, 8×10^4 CD34^+-ECs were seeded on the Matrigel-coated transwell insert. The cells were then incubated with agonists/ligands (6.25 ng/mL–100 ng/mL Wnt3A (R&D Systems), 6.25 ng/mL–250 ng/mL Wnt7A (Peprotech) or 0.5–5 µM BIO (Sigma)) for 1 or 5 days. Co-cultures were prepared as described before. The CD34^+-derived ECs co-cultured with pericytes for 1 or 6 days were used in the signaling experiments. Agonist (0.5–5 µM BIO) was added into the basolateral compartment while antagonist (0.1–3 µM XAV939 (Selleckbio)) was added in the apical part of the transwell system.

CD34+-derived ECs [2] = assay: qRT-PCR of claudin-1 and LEF1 in ECs treated with Wnt ligands; assay type: cell-based, human; conditions: EC monoculture
Description: as §2
Reverse transcription and quantitative real time polymerase chain reaction (qRT-PCR) analysis. CD34^+-ECs cultured in different conditions were homogenized in Trizol reagent (Life Technologies) and total RNA was extracted using the RNeasy Mini Kit (Qiagen), according to manufacturer’s instructions. In all cases, cDNA was prepared from 1 μg total RNA using Taqman Reverse transcription reagents (Applied Biosystems). Non-quantitative RT-PCR was performed using the conditions described in [4] and DNA migrated on a agarose gel electrophoresis (1.5%) with a low range DNA molecular weight marker (Euromedex) to visualize the sizes. Gels were then stained with gel red nucleic acid gel stain (Interchim) and visualized on a UV light transilluminator (Bio-Rad). Quantitative real time PCR (qRT-PCR) was performed using Power SYBR Green PCR Master Mix (Applied Biosystems) and the detection was carried out in a 7500 Fast Real-Time PCR System (Applied Biosystems). Quantification of target genes was performed relatively to the reference GAPDH gene: relative expression = 2^[-(Ctsample^-CtGADPH^)]. Primer sequences are given as supporting information (Table S2).

CD34+-derived ECs [3] = assay: Immunostaining of claudin-1 in treated EC monocultures; assay type: cell-based, human; conditions: EC monoculture, day 6; BIO 0.5 µM, Wnt3a 6.25 ng/mL
Description: as §2
Immunostaining. Cells were fixed in cold methanol/acetone (50%/50% v/v) for 1 min or 4% (v/v) paraformaldehyde (Electron Microscopy Sciences, EMS) for 10 min at room temperature (see Table S1). After permeabilizing the cells with 0.1% (v/v) Triton X-100 (Sigma-Aldrich) for 5-10 min, whenever required, and blocking for 30 min with 1% (w/v) bovine serum albumin (BSA) solution (Sigma-Aldrich) or normal goat serum (10% (v/v), Sigma-Aldrich), the cells were incubated for 1 h with the primary monoclonal antibodies listed in Table S1, at room temperature. […] Cells were examined with a Zeiss LSM 50 confocal microscope or with a Leica DMR fluorescence microscope (Leica Microsystems). […]

P-gp = P-gp (Homo sapiens, UniProt P08183); conditions: [3H]-vincristine sulphate 66.5 nM, 2 h; 25 μM verapamil or 0.5 μM elacridar
Sequence of P-gp (P08183 whole entry): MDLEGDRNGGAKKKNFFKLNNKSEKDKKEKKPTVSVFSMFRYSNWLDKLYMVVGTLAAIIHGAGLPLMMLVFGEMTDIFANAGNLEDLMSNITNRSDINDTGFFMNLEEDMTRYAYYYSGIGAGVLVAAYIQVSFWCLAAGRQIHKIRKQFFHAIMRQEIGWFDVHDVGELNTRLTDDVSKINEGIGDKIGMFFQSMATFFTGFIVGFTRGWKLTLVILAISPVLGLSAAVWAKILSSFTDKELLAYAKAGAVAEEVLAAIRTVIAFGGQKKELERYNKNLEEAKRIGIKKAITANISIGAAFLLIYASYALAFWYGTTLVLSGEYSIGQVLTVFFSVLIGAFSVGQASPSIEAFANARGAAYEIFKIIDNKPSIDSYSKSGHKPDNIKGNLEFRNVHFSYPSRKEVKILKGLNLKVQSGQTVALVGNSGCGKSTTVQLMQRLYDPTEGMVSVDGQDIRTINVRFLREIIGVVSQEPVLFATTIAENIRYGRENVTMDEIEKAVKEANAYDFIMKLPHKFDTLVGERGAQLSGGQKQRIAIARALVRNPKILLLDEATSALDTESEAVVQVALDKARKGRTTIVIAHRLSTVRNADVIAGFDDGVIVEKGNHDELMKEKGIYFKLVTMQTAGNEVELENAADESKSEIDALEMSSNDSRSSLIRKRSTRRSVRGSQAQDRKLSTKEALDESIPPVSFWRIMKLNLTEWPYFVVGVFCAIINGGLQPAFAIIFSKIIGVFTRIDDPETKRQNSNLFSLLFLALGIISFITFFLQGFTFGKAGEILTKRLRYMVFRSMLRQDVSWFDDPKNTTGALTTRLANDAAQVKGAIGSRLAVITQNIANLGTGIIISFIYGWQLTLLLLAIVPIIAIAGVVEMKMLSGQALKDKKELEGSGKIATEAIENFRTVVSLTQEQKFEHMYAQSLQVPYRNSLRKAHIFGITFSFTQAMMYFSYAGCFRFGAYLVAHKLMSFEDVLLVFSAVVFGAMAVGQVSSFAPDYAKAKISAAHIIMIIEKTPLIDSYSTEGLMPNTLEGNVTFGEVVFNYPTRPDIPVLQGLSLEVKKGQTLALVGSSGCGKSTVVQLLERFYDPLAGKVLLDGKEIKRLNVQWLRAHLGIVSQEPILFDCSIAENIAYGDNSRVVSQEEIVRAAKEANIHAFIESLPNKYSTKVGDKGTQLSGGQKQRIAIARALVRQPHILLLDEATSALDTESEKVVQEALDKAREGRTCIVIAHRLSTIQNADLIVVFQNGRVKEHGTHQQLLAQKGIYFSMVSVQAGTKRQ

[4] = test system: monolayers of CD34+-derived ECs (monoculture); assay: Endothelial permeability (Pe) to Lucifer yellow, ECs in monoculture; assay type: in vitro ADME, human; conditions: CD34+-derived ECs grown to confluence on filters for 6 days
Description: as §1
To obtain a concentration-independent transport parameter, the clearance principle was used. The increment in cleared volume was calculated by dividing the amount of compound in the receiver compartment by the drug concentration in the donor compartment. The volume cleared was plotted versus time and the slope estimated by linear regression analysis. […] The PS-value for endothelial monolayer (PSe) was calculated. […]

[5] = test system: brain-like endothelial cells (BLECs); assay: Endothelial permeability (Pe) to Lucifer yellow, ECs co-cultured with pericytes (BLECs); assay type: in vitro ADME, human; conditions: day 6, n = 60
Description: For co-culture experiments, pericytes were initially seeded on 60-mm gelatin-coated petri dishes and cultured in Dulbecco’s Modified Eagle’s Medium (DMEM) (Life Technologies) supplemented with 20% (v/v) FBS (Life Technologies), 2 mM L-glutamine, 50 µg/mL gentamycin and 1 ng/mL bFGF. The cells reached confluency after 2 days. 45×10^3 cells were seeded into each well of 12-well plates (Costar). […]
Prior to the experiments, HEPES-buffered Ringer’s solution (in some cases EBM-2 medium) was added to empty wells of a 12-well plate (Costar). […] Aliquots from the donor solution were taken at the beginning and at the end of the experiments and the fluorescence was quantified. […] Fluorescence detection was carried out on a Synergy H1 multiplates reader (Biotek) using the following excitation/emission wavelength (nm) settings: 432/538; 490/516; 542/570 for Lucifer yellow, Fluorescein Na and Cy3-Human Serum Albumin and Human IgG respectively.
To obtain a concentration-independent transport parameter, the clearance principle was used. The increment in cleared volume was calculated by dividing the amount of compound in the receiver compartment by the drug concentration in the donor compartment. […] The PS-value for endothelial monolayer (PSe) was calculated. […]

[6] = test system: cord blood-derived ECs co-cultured with astrocytes; parameters: method as in PMID 24392113; conditions: BBB model of cord blood-derived ECs co-cultured with astrocytes; cited from earlier work
BLECs = assay: Expression of adhesion molecules by BLECs (FACS); assay type: cell-based, human; conditions: 10 ng/mL for 24 h
Description: Adhesion molecule expression by BLECs was determined by FACS. For these experiments, CD34^+-ECs were cultured with pericytes for 6 days. After co-culture, transwells with BLEC monolayers were transferred to a new 12-well plate. BLECs were treated with 10 ng/mL TNF-α (Peprotech) for 24 h. Untreated BLECs were used as control. Cells were dissociated from the culture plate by exposure to Cell Dissociation Buffer (Life Technologies) for 3–5 min and gentle pipetting, centrifuged and finally resuspended in PBS supplemented with 5% (v/v) FBS. The single cell suspensions were aliquoted (2.0×10^5 cells per condition) and incubated with primary antibodies against human CD40, ICAM1, ICAM2, VCAM1, PECAM1 (Table S1). After the incubation with primary antibodies, cells were incubated with phycoerytrin (PE)-conjugated anti-rabbit (R&D Systems), and PE-conjugated anti-mouse (Santa Cruz) secondary antibodies. FACS Calibur (BD Biosciences) and BD Cell Quest Software (BD Biosciences) were used for the acquisition and analysis of the data.
FACS analysis. Cells were dissociated from the culture plate by exposure to Cell Dissociation Buffer (Life Technologies) for 3-5 min and gentle pipetting, centrifuged and finally resuspended in PBS supplemented with 5% (v/v) FBS. […]

[7] = long-term: 1 day of monoculture + 5 day of treatment, Wnt7a 6.25 ng/mL, BIO 0.5 µM

Molecule	expression of active β-catenin (β-catenin)	expression and nuclear localization of total β-catenin (β-catenin)	paracellular permeability to Lucifer Yellow versus untreated cells [1, 7]	LEF1 gene expression (CD34+-derived ECs [2])	claudin-1 gene expression (CD34+-derived ECs [2])	localization of claudin-1 (CD34+-derived ECs [3])	further results
O=C1Nc2cc(Br)ccc2/C1=C1/Nc2ccccc2/C1=N\O [BIO]	increasing	increase	only observed after 5-day treatment	up-regulation	up-regulation	localization of claudin-1 at the cell-cell contacts	–
COc1cc2c(cc1OC)CN(CCc1ccc(NC(=O)c3cccc4c(=O)c5cccc(OC)c5[nH]c34)cc1)CC2 [elacridar]	–	–	–	–	–	–	accumulation of vincristine in BLECs on inhibition of P-gp (P-gp): significant increase
Lucifer yellow	–	–	–	–	–	–	permeability to Lucifer yellow [4]: 33.3 ×10⁻⁶ cm/s; permeability to Lucifer yellow [5]: 0.61±0.15×10^−3 cm/min; Pe to Lucifer yellow [6]: 20.5 ×10⁻⁶ cm/s
TNF-α	–	–	–	–	–	–	expression of ICAM-1, ICAM-2, CD40 and VCAM-1 (BLECs): up-regulation
Wnt3a: human recombinant protein Wnt3a, Wnt ligand (protein, UniProt P56704 19-352, looked up) Protein Wnt-3a: SYPIWWSLAVGPQYSSLGSQPILCASIPGLVPKQLRFCRNYVEIMPSVAEGIKIGIQECQHQFRGRRWNCTTVHDSLAIFGPVLDKATRESAFVHAIASAGVAFAVTRSCAEGTAAICGCSSRHQGSPGKGWKWGGCSEDIEFGGMVSREFADARENRPDARSAMNRHNNEAGRQAIASHMHLKCKCHGLSGSCEVKTCWWSQPDFRAIGDFLKDKYDSASEMVVEKHRESRGWVETLRPRYTYFKVPTERDLVYYEASPNFCEPNPETGSFGTRDRTCNVSSHGIDGCDLLCCGRGHNARAERRREKCRCVFHWCCYVSCQECTRVYDVHTCK	increasing	increase	statistical lower	up-regulation	up-regulation	localization of claudin-1 at the cell-cell contacts	paracellular permeability to Lucifer Yellow versus untreated cells ([1]; short-term: 5 days of monoculture + 1 day of treatment, P<0.01, n = 4): statistical lower
Wnt7a: human recombinant protein Wnt7a, Wnt ligand (protein, UniProt O00755 32-349, looked up) Protein Wnt-7a: LGASIICNKIPGLAPRQRAICQSRPDAIIVIGEGSQMGLDECQFQFRNGRWNCSALGERTVFGKELKVGSREAAFTYAIIAAGVAHAITAACTQGNLSDCGCDKEKQGQYHRDEGWKWGGCSADIRYGIGFAKVFVDAREIKQNARTLMNLHNNEAGRKILEENMKLECKCHGVSGSCTTKTCWTTLPQFRELGYVLKDKYNEAVHVEPVRASRNKRPTFLKIKKPLSYRKPMDTDLVYIEKSPNYCEEDPVTGSVGTQGRACNKTAPQASGCDLMCCGRGYNTHQYARVWQCNCKFHWCCYVKCNTCSERTEMYTCK	–	–	only observed after 5-day treatment	–	–	–	–
